Test results as given in patent US20060286575A1, “MCL-1 quadruplex nucleic acids and uses thereof” (Cylene Pharmaceuticals, Inc., priority 2005, published 2006).

Columns and labels:
[1] = test system: MCL-1 mRNA; test: MCL-1 mRNA expression in DAOY medulloblastoma cells; assay type: cell-based; conditions: 1 uM, 19 hours
Method: (§1) FIG. 3 illustrates Mcl-1 mRNA expression levels in medulloblastoma cells treated with CX-3543. The cells were treated at 0.1 and 1 μM CX-3543 for 19 hours, as measured by Affymetrix U133+2.0 47,000 gene chip.
(§2) D556 medulloblastoma cells were exposed to 1 uM Compound A-1 for 19 hours. […] The level of apoptosis induced in D556 as measured by Annexin V staining was about 5.5-fold higher than in DMSO-treated cells, as compared to about 1.9-fold in DAOY cells. The relative amount of down-regulation of MCL-1 (approximately 14-fold compared to about 3.2-fold) correlates with the relative level of apoptosis induction (about 5.5-fold as compared to about 1.9-fold).

[2] = test system: extended MCL-1 sequence (insert 46); test: Competition assay (Taq polymerase stop reaction as reporter), competitor extended MCL-1 sequence insert 46; assay type: binding; conditions: FIG. 2
Description: (§3) An example of an affinity competition assay, described hereafter, is useful for determining the relative binding affinities of a test molecule between different types of nucleic acid structures, using the ability of the test molecule to bind and stabilize a specific G-quadruplex structure in a Taq polymerase stop reaction utilized as a reporter system.
(§4) The assay first involves establishing the IC50 of a test molecule in the polymerase arrest assay described above using the fluorescent-labeled oligonucleotide primer. The IC50 concentration is defined as the concentration of test molecule required that yields a 1:1 ratio of quadruplex arrest to full-length product.
(§5) A competitor nucleic acid sequence is titrated into the reaction such that each individual reaction contains the test compound at it's IC50 concentration and an increasing concentration of competitor nucleic acid (increasing from zero). The competitor nucleic acid, may be a short duplex or single strand oligonucleotide, a plasmid DNA sequence, an RNA sequence, or a nucleic acid sequence capable of forming a secondary structure, such as a G-quadruplex. […] The decrease in quadruplex arrest product, relative to the full-length product is measured as a function of concentration of added competitor nucleic acid. Thus the relative binding affinities to different competitor nucleic acid structures can be determined graphically. […]

[3] = test system: DAOY medulloblastoma cells; test: Apoptosis induction by Annexin V staining in DAOY cells; assay type: cell-based
Method: (§6) FIG. 4 depicts the induction of apoptosis following treatment with CX-3543.
as §2

[4] = test system: extended MCL-1 sequence (insert 58); test: Competition assay (Taq polymerase stop reaction as reporter), competitor extended MCL-1 sequence insert 58; assay type: binding; conditions: FIG. 2
Description: as §3, §4, §5

[5] = test system: D556 medulloblastoma cells; test: Apoptosis induction by Annexin V staining in D556 cells; assay type: cell-based
Method: as §6, §2

[6] = test system: MCL-1 mRNA; test: MCL-1 mRNA expression in D556 medulloblastoma cells (Affymetrix U133+2.0 gene chip); assay type: cell-based; conditions: 19 hours
Method: as §1, §2

[7] = test system: MCL-1 wildtype quadruplex sequence (MCL-wt); test: Competition assay (Taq polymerase stop reaction as reporter), competitor MCL-1 wildtype quadruplex; assay type: binding; conditions: test compound at its IC50 concentration
Description: as §3, §4, §5

[8] = test system: MCL-1 protein; test: MCL-1 protein levels in cells contacted with compound; assay type: cell-based; conditions: expected from the mRNA and apoptosis results
Method: as §2

Structure (SMILES): CN1CCC[C@H]1CCNC(=O)c1cn2c3c(c(N4CCC(c5cnccn5)C4)c(F)cc3c1=O)Oc1cc3ccccc3cc1-2 (stereo partly shown) [Compound A-1]
- MCL-1 mRNA down-regulation [1]: approximately 3.2 fold
- binding to extended MCL-1 sequence insert 46 compared to the wildtype sequence [2]: comparably higher
- level of apoptosis induced, relative to DMSO-treated cells [3]: about 1.9 fold
- binding to extended MCL-1 sequence insert 58 compared to the wildtype sequence [4]: comparably higher
- level of apoptosis induced, relative to DMSO-treated cells ([5]; D556 cells): about 5.5 fold
- apoptosis induction, D556 compared with DAOY ([5]; FIG. 4): greater effect of CX-3543 on D556 than on DAOY
- rank of Mcl-1 among genes with statistically significant change relative to DMSO control ([6]; D556 cells, 1 μM, out of more than 500 genes): eighth most highly down-regulated gene
- MCL-1 mRNA down-regulation ([6]; D556 medulloblastoma cells, 1 uM): approximately 14 fold
- binding to the MCL-1 sequence shown in FIG. 2 [7]: binds
- MCL-1 protein levels [8]: decreased
